Assay results reported in patent publication US7361758B2, “Crystals of triazaspiro[5.5]undecane derivative” (Ono Pharmaceutical Co., Ltd., priority 2002, dated 2008).

What was measured:
[1] = molecular target: interaction between chemokine and a chemokine receptor (Homo sapiens, UniProt P51681); assay: antagonistic activity against the interaction between chemokine and a chemokine receptor (method described in WO 01/40227); assay type: biochemical; conditions: compared with the amorphous substance produced by the method of WO 02/074770
Chain of interaction between chemokine and a chemokine receptor (P51681 whole entry): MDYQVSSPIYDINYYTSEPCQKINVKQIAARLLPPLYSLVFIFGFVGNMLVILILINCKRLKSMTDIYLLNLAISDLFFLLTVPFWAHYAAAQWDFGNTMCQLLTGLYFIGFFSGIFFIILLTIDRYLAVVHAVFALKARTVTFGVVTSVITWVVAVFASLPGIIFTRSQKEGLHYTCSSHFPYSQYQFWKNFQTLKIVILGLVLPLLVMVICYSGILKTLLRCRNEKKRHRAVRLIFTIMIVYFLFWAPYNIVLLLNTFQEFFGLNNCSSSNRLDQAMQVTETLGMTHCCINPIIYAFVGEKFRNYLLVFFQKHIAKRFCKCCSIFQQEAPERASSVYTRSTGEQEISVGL

[2] = tested on: rats; conditions: rat, in vivo, 2000 mg/kg
Procedure: Thus, the inventive compound is determined as sufficiently safe for medical use.

`CCCCN1C(=O)[C@@H]([C@H](O)C2CCCCC2)NC(=O)C12CCN(Cc1ccc(Oc3ccc(C(=O)O)cc3)cc1)CC2.Cl` [Crystal A, (3R)-1-butyl-2,5-dioxo-3-[(1R)-1-hydroxy-1-cyclohexylmethyl]-9-[4-(4-carboxyphenyloxy)phenylmethyl]-1,4,9-triazaspiro[5.5]undecane Hydrochloride] was tested, and the “antagonistic activity against the interaction between chemokine and a chemokine receptor” value [1] was “almost the same level as that of the amorphous substance” and the toxicity [2] was “never showed distinct toxicity”.
